Experimental data published in publication PMC6213020, “Identification of a Novel PPAR-γ Agonist through a Scaffold Tuning Approach” (International Journal of Molecular Sciences, 2018).
Like-named read-outs stand apart in the source and are kept apart here.

Experiments:
PPAR-α = biological target: T1, PPAR-α (Homo sapiens, UniProt Q07869); assay: cell-based PPAR transactivation (luciferase) assay, PPAR-α; conditions: 24 h; compounds 10 µM; relative to maximum activation with GW7647 (10 µM); PPAR-Luc in CV-1 cells; read-out: % max PPAR-α
T1 construct: host or cells: CV-1
T1 sequence (Q07869 1-468): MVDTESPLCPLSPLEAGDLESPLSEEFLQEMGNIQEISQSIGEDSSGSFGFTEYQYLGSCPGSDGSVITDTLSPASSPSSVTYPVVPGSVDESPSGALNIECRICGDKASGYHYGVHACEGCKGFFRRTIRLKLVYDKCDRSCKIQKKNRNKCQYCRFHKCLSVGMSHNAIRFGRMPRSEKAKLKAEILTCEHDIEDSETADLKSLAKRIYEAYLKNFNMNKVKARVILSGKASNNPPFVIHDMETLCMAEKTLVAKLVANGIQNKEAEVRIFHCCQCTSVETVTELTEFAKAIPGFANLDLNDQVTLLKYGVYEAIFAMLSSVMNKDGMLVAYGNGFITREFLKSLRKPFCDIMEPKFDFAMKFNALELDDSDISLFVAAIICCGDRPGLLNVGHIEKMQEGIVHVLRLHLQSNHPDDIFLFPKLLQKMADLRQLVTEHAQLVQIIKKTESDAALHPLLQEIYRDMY
Procedure: (§1) The PPAR activities of the synthesized dichloroanilide-linked indole analogs were assessed using a standard cell-based transactivation assay in CV-1 cells. GW7647 [42], pioglitazone, and GW0742 [43] were used as positive controls for PPAR-α, -γ, and -δ, respectively. These three positive controls presented the maximum activation for each PPAR subtype. The activity of the compounds was presented as the activation percentage (%) relative to the maximum values of the positive controls at the indicated concentrations.
(§2) Transient transfection and luciferase assay was carried out. CV-1 cells were seeded in 48-well plates at a density of 1.5 × 10^5 cells/well in Dulbecco’s modified Eagle’s medium (DMEM) with containing 10% fetal bovine serum (FBS). The cells were transiently transfected with plasmid mixtures containing PPAR-α/γ expression vector and tk-PPRE-luciferase (Luc) vector for 6 h and then treated with the samples for 24 h. HEK293t cells were seeded in a 60-mm dish at a density of 1.5 × 10^6 cells/dish. After transfection with the plasmid mixtures containing PPAR-δ expression vector and Luc vector for 6 h, the cells were transferred to a 96-well plate and treated with the samples. To normalize the transfection efficiency, a β-galactosidase plasmid was cotransfected. The luciferase activity in the cell lysates was measured using a luciferase assay system (Promega Corp., Madison, WI, USA), and the β-galactosidase activity was determined by measuring the absorbance at 410 nm using an ELISA plate reader. The data were expressed as the relative luciferase activity divided by the β-galactosidase activity. All constructs were kindly gifted by Dr. Ronald M. Evans at The Salk Institute (La Jolla, CA, USA).

PPAR-δ [1] = biological target: T2, PPAR-δ (Homo sapiens, UniProt Q03181); assay: cell-based PPAR transactivation (luciferase) assay, PPAR-δ; conditions: compounds 10 µM; relative to maximum activation with GW0742 (10 μM); PPAR-Luc in HEK293t cells; read-out: % max PPAR-δ
T2 construct: host or cells: HEK293t
T2 sequence (Q03181 1-441): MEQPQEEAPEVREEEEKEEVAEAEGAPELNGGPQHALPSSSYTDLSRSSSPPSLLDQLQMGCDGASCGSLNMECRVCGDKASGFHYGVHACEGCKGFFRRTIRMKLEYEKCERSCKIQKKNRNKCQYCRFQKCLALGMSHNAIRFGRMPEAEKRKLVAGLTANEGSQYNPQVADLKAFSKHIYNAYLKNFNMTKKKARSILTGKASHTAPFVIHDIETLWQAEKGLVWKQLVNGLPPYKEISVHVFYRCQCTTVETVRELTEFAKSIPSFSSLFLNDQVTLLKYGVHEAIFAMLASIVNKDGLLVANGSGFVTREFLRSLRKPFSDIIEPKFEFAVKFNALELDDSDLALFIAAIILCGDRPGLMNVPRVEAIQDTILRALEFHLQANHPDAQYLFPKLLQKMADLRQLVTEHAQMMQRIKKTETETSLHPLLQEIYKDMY
Procedure: as §1, §2

PPAR-γ = biological target: T3, PPAR-γ (Homo sapiens, UniProt P37231); assay: TR-FRET LanthaScreen PPAR coactivator recruit assay, PPAR-γ (TRAP220/DRIP2 peptide); type: biochemical; conditions: for EC50: TR-FRET coactivator recruit assay
T3 construct: purchased Invitrogen / Thermo Fisher Scientific (assay service)
T3 sequence (P37231 238-503 limits assumed): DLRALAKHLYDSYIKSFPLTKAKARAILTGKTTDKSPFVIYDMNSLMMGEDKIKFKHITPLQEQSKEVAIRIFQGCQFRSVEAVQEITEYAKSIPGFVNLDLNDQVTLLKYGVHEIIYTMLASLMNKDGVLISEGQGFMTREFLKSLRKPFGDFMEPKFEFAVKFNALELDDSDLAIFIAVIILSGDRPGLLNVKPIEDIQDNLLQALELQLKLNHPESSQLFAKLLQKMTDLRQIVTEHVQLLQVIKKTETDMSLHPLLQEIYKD
Excerpt: (§3) Binding of agonist to the PPAR LBD causes a conformational change around helix 12 in the LBD, resulting in higher affinity for the coactivator peptide. When the terbium label on the anti-GST antibody complexed with PPAR is excited at 340 nm, energy is transferred to the fluorescein label on the coactivator peptide and detected as emission at 520 nm. […] Based on the biology of the PPAR-coactivator peptide interaction, this ligand EC50 is a composite value representing the amount of ligand required to bind to receptor, effect a conformational change, and recruit coactivator peptide. Potency of compounds show similar order to their activity (Table 3). […] Ligands such as TZDs show little or no binding to PPAR-δ. Compound 11 and 15 have ortho or meta substituted benzoic acid as an acidic head group. Their acidic head groups might seem to be too large to fit within the narrow PPAR-δ pocket. In contrast, the compound 1 and 2 contains an acetic acid head group that complements the narrow PPAR-δ ligand binding. […] The potency and selectivity of compound 11 could be explained by harmonization of steric effect of acidic head group, length and rigidity of hydrophobic tail, and properly tuned aromatic linker system.
(§4) EC50 of compounds were determined by recruitment of transcriptional coactivators using the TR-FRET based Lanthascreen coactivator assays (Invitrogen, Carlsbad, CA, USA). Which was serviced by Thermo Fisher Scientific (Medicon, WI, USA) according to the LanthaScreen TR-FRET coregulator protocol and assay conditions. Coregulator peptide PGC1a, TRAP220/DRIP2 and C33 was used for the coactivator recruit assay of PPAR-α, -γ, and -δ, respectively.

PPAR-δ [2] = biological target: T4, PPAR-δ (Homo sapiens, UniProt Q03181); assay: TR-FRET LanthaScreen PPAR coactivator recruit assay, PPAR-δ (C33 peptide); type: biochemical
T4 construct: purchased Invitrogen / Thermo Fisher Scientific (assay service)
T4 sequence (Q03181 211-439 limits assumed): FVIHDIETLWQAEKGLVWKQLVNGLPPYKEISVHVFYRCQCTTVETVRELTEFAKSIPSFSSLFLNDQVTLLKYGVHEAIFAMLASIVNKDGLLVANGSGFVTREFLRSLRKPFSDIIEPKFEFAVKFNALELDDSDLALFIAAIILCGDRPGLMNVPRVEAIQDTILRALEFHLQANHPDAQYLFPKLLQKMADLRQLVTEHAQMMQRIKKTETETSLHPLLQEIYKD
Excerpt: as §3, §4

| activation at 10 µM (PPAR-α) [%] | activation at 10 µM (PPAR-δ [1]) [%] | EC50 (PPAR-γ; read-out: EC50 PPAR-γ) [µM] | EC50 (PPAR-δ [2]) [µM] | selectivity for PPAR-γ to PPAR-α (PPAR-γ; from coactivator recruit EC50) | selectivity for PPAR-γ to PPAR-δ (PPAR-γ; from coactivator recruit EC50) | EC50 (PPAR-γ; read-out: EC50 to PPAR-γ) [µM] | SMILES |
| --- | --- | --- | --- | --- | --- | --- | --- |
| 51.84 ± 0.25 | 86.7 ± 0.53 | 0.571 | > 100 | – | – | – | O=C(COc1ccc2ccn(Cc3ccccc3C(=O)O)c2c1)Nc1ccc(Cl)cc1Cl [Compound 13, 2-((6-(2-((2,4-Dichlorophenyl)amino)-2-oxoethoxy)-1H-indol-1-yl)methyl)benzoic acid] |
| 105.1 ± 0.41 | 94.86 ± 0.2 | 0.00196 | 32.6 | 1,970 fold | 16,600 fold | – | O=C(COc1ccc2c(ccn2Cc2ccccc2C(=O)O)c1)Nc1ccc(Cl)cc1Cl [Compound 12, 2-((5-(2-((2,4-Dichlorophenyl)amino)-2-oxoethoxy)-1H-indol-1-yl)methyl)benzoic acid] |
| 78.15 ± 0.04 | 86.09 ± 0.31 | 0.0326 | > 100 | – | – | 0.0323 | O=C(COc1ccc2ccn(Cc3cccc(C(=O)O)c3)c2c1)Nc1ccc(Cl)cc1Cl [Compound 15, 3-((6-(2-((2,4-Dichlorophenyl)amino)-2-oxoethoxy)-1H-indol-1-yl)methyl)benzoic acid] |
| 23.79 ± 0.11 | 75.88 ± 0.35 | > 11.1 | 28.1 | – | – | – | O=C(COc1ccc2c(c1)c(Cc1ccccc1)cn2Cc1ccccc1C(=O)O)Nc1ccc(Cl)cc1Cl [Compound 18, 2-((3-Benzyl-5-(2-((2,4-dichlorophenyl)amino)-2-oxoethoxy)-1H-indol-1-yl)methyl)benzoic acid] |
